# In ChEMBL document CHEMBL3097995, “NAD-based inhibitors with anticancer potential” (Bioorg Med Chem Lett, 2014):
# pIC50, pKi: −log10 of the molar value.
# Key:
# PC-3 = experiment: Antiproliferative activity against human PC3 cells; assay type: functional, cell-based
# DU-145 = experiment: Antiproliferative activity against human DU145 cells; assay type: functional, cell-based
# [1] = molecular target: Inosine-5'-monophosphate dehydrogenase 1 (Homo sapiens, UniProt P20839); experiment: Inhibition of IMPDH1 (unknown origin)
# Chain of Inosine-5'-monophosphate dehydrogenase 1 (P20839 whole entry): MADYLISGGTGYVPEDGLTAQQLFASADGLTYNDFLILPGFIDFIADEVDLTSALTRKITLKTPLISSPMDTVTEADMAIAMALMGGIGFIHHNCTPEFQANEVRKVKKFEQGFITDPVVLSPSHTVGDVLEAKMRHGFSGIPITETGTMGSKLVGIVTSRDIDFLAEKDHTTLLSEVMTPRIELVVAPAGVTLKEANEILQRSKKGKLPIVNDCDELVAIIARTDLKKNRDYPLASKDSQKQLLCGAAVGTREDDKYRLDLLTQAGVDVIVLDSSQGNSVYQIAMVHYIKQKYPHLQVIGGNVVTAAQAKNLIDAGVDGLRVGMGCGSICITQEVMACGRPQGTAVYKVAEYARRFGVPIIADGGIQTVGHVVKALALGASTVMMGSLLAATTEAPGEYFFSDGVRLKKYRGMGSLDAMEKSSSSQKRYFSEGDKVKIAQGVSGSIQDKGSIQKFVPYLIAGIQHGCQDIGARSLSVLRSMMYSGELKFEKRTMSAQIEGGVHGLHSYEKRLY
# [2] = molecular target: Inosine-5'-monophosphate dehydrogenase 2 (Homo sapiens, UniProt P12268); experiment: Inhibition of IMPDH2 (unknown origin)
# HL-60 = experiment: Antiproliferative activity against human HL60 cells; assay type: functional, cell-based
# K562 = experiment: Antiproliferative activity against human K562 cells; assay type: functional, cell-based
# Homo sapiens = organism: Homo sapiens; experiment: Selectivity ratio of Ki for IMPDH1 (unknown origin) to Ki for IMPDH2 (unknown origin)
# HT-29 = experiment: Antiproliferative activity against human HT-29 cells; assay type: functional, cell-based
# HeLa = experiment: Antiproliferative activity against human HeLa cells; assay type: functional, cell-based
# Plasma = experiment: Metabolic stability in human plasma; assay type: ADME, cell-free
Compound,pIC50 (PC-3),pIC50 (DU-145),pKi [1],pKi [2],pIC50 (HL-60),pIC50 (K562),Ratio Ki (Homo sapiens),pIC50 (HT-29),pIC50 (HeLa),Stability (Plasma)
COC(=O)[C@@H](Cc1ccccc1)NC(=O)CC/C(C)=C/Cc1c(O)c2c(c(C)c1OC)COC2=O,4.15,5.00,5.26,5.62,4.39,4.54,–,–,–,–
COc1c(C)c2c(c(O)c1C/C=C(\C)CCC(=O)N[C@H](C(=O)O)C(C)C)C(=O)OC2,< 4.00,< 4.00,6.88,6.76,4.14,4.26,–,–,–,–
COc1c(C)c2c(c(O)c1C/C=C(\C)CCC(=O)N[C@@H](Cc1ccc(O)cc1)C(=O)O)C(=O)OC2,< 4.00,< 4.00,5.77,6.67,< 4.00,< 4.00,–,–,–,–
COc1c(C)c2c(c(O)c1CCOP(=O)(O)CP(=O)(O)OC[C@H]1O[C@@H](n3cnc4c(N)cccc43)[C@H](O)[C@@H]1O)C(=O)OC2,–,–,6.31,6.78,–,5.60,3,< 4.00,4.60,–
COC(=O)[C@H](CO)NC(=O)CC/C(C)=C/Cc1c(O)c2c(c(C)c1OC)COC2=O,< 4.00,4.89,5.99,7.03,4.74,5.38,–,–,–,–
COc1c(C)c2c(c(O)c1CCOP(=O)(O)CP(=O)(O)OC[C@H]1O[C@@H](n3c(Br)nc4c(N)ncnc43)[C@H](O)[C@@H]1O)C(=O)OC2,–,–,7.41,6.73,–,4.32,–,< 4.00,< 4.00,–
COc1c(C)c2c(c(O)c1CCOP(=O)(O)CP(=O)(O)OC[C@H]1O[C@@H](n3cnc4c([N+](=O)[O-])cccc43)[C@H](O)[C@@H]1O)C(=O)OC2,–,–,6.06,6.13,–,< 4.00,–,< 4.00,< 4.00,–
COc1c(C)c2c(c(O)c1C/C=C(\C)CCC(=O)N[C@@H](CCSC)C(=O)O)C(=O)OC2,< 4.00,< 4.00,5.29,6.87,< 4.00,< 4.00,–,–,–,–
COC(=O)CNC(=O)CC/C(C)=C/Cc1c(O)c2c(c(C)c1OC)COC2=O,4.10,5.51,6.28,6.31,4.66,4.80,–,–,–,–
COc1c(C)c2c(c(O)c1C/C=C(\C)CCC(=O)NCC(=O)O)C(=O)OC2,< 4.00,< 4.00,6.05,6.49,< 4.00,5.00,–,–,–,–
COc1c(C)c2c(c(O)c1CCOP(=O)(O)CP(=O)(O)OC[C@H]1O[C@@H](n3cnc4c(N)nc(-c5ccco5)nc43)[C@H](O)[C@@H]1O)C(=O)OC2,–,–,7.20,7.43,–,6.10,–,5.01,5.52,–
COc1c(C)c2c(c(O)c1C/C=C(\C)CCC(=O)OCCN1CCOCC1)C(=O)OC2 [MYCOPHENOLATE MOFETIL],–,–,–,–,–,–,–,–,–,Unstable
COc1c(C)c2c(c(O)c1CCOP(=O)(O)CP(=O)(O)OC[C@H]1O[C@@H](n3cnc4c(N)nc(-c5cccs5)nc43)[C@H](O)[C@@H]1O)C(=O)OC2,–,–,7.09,7.25,–,5.82,–,4.34,4.92,–
COc1c(C)c2c(c(O)c1C/C=C(\C)CCC(=O)N[C@@H](Cc1ccccc1)C(=O)O)C(=O)OC2,< 4.00,< 4.00,6.07,6.79,< 4.00,< 4.00,–,–,–,–
COC(=O)[C@H](Cc1ccccc1)NC(=O)CC/C(C)=C/Cc1c(O)c2c(c(C)c1OC)COC2=O,< 4.00,< 4.00,5.36,6.36,4.46,4.30,–,–,–,–
COc1c(C)c2c(c(O)c1CCOP(=O)(O)CP(=O)(O)OC[C@H]1O[C@@H](n3cnc4c(N)nc(C(F)(F)F)nc43)[C@H](O)[C@@H]1O)C(=O)OC2,–,–,7.89,7.82,–,6.00,–,5.06,5.35,–
COC(=O)[C@H](Cc1ccc(O)cc1)NC(=O)CC/C(C)=C/Cc1c(O)c2c(c(C)c1OC)COC2=O,4.96,5.20,5.74,6.44,5.33,5.17,–,–,–,–
COc1c(C)c2c(c(O)c1C/C=C(\C)CCC(=O)N[C@@H](CO)C(=O)O)C(=O)OC2,< 4.00,< 4.00,5.55,5.55,< 4.00,< 4.00,–,–,–,–
COC(=O)[C@H](NC(=O)CC/C(C)=C/Cc1c(O)c2c(c(C)c1OC)COC2=O)C(C)C,4.21,4.80,5.11,5.71,4.44,4.54,–,–,–,–
COc1c(C)c2c(c(O)c1C/C=C(\C)CCC(=O)N1CCC[C@H]1C(=O)O)C(=O)OC2,–,–,6.04,6.28,–,–,–,–,–,–
COc1c(C)c2c(c(O)c1CCOP(=O)(O)CP(=O)(O)OC[C@H]1O[C@@H](n3cnc4c(N)nc(COCc5ccccc5)nc43)[C@H](O)[C@@H]1O)C(=O)OC2,–,–,7.15,7.36,–,5.52,–,< 4.00,4.96,–
COc1c(C)c2c(c(O)c1C/C=C(\C)CCC(=O)N[C@@H](C(=O)O)C(C)C)C(=O)OC2,< 4.00,< 4.00,5.69,5.91,< 4.00,< 4.00,–,–,–,–
COC(=O)[C@@H](NC(=O)CC/C(C)=C/Cc1c(O)c2c(c(C)c1OC)COC2=O)C(C)C,< 4.00,4.41,5.42,6.01,4.51,5.08,–,–,–,–
COC(=O)[C@H](CCSC)NC(=O)CC/C(C)=C/Cc1c(O)c2c(c(C)c1OC)COC2=O,–,5.06,5.66,6.83,5.35,5.52,–,–,–,–
COc1c(C)c2c(c(O)c1C/C=C(\C)CCC(=O)N[C@H](Cc1ccccc1)C(=O)O)C(=O)OC2,< 4.00,5.00,5.37,5.57,< 4.00,< 4.00,–,–,–,–

# Continued, values first:
pIC50 (PC-3),pIC50 (DU-145),pKi [1],pKi [2],pIC50 (HL-60),pIC50 (K562),Ratio Ki (Homo sapiens),pIC50 (HT-29),pIC50 (HeLa),Stability (Plasma),Compound
< 4.00,< 4.00,7.25,6.63,< 4.00,< 4.00,–,–,–,–,COc1c(C)c2c(c(O)c1C/C=C(\C)CCC(=O)N[C@@H](Cc1c[nH]c3ccccc13)C(=O)O)C(=O)OC2
< 4.00,< 4.00,8.52,7.06,< 4.00,< 4.00,–,–,–,–,COc1c(C)c2c(c(O)c1C/C=C(\C)CCC(=O)N[C@@H](C(=O)NC[C@H]1O[C@@H](n3cnc4c(N)ncnc43)[C@H](O)[C@@H]1O)C(C)C)C(=O)OC2
< 4.00,5.01,6.13,6.63,5.08,5.21,–,–,–,–,COC(=O)[C@H](Cc1c[nH]c2ccccc12)NC(=O)CC/C(C)=C/Cc1c(O)c2c(c(C)c1OC)COC2=O
< 4.00,< 4.00,7.49,6.76,< 4.00,< 4.00,–,–,–,–,COc1c(C)c2c(c(O)c1C/C=C(\C)CCC(=O)N[C@H](Cc1c[nH]c3ccccc13)C(=O)O)C(=O)OC2
< 4.00,< 4.00,7.25,7.40,< 4.00,< 4.00,–,–,–,–,COc1c(C)c2c(c(O)c1C/C=C(\C)CCC(=O)N[C@H](Cc1c[nH]c3ccccc13)C(=O)NC[C@H]1O[C@@H](n3cnc4c(N)ncnc43)[C@H](O)[C@@H]1O)C(=O)OC2
< 4.00,< 4.00,6.59,6.73,< 4.00,< 4.00,–,–,–,–,COc1c(C)c2c(c(O)c1C/C=C(\C)CCC(=O)NCC(=O)NC[C@H]1O[C@@H](n3cnc4c(N)ncnc43)[C@H](O)[C@@H]1O)C(=O)OC2
< 4.00,< 4.00,7.72,7.15,< 4.00,< 4.00,–,–,–,–,COc1c(C)c2c(c(O)c1C/C=C(\C)CCC(=O)N[C@H](C(=O)NC[C@H]1O[C@@H](n3cnc4c(N)ncnc43)[C@H](O)[C@@H]1O)C(C)C)C(=O)OC2
–,5.82,5.59,6.64,5.68,5.80,–,–,–,Unstable,COc1c(C)c2c(c(O)c1C/C=C(\C)CCC(=O)OC[C@@H]1O[C@H](n3cnc4c(N)ncnc43)[C@@H](O)[C@H]1O)C(=O)OC2
< 4.00,< 4.00,7.42,7.90,< 4.00,< 4.00,–,–,–,–,COc1c(C)c2c(c(O)c1C/C=C(\C)CCC(=O)N[C@H](Cc1ccccc1)C(=O)NC[C@H]1O[C@@H](n3cnc4c(N)ncnc43)[C@H](O)[C@@H]1O)C(=O)OC2
< 4.00,< 4.00,6.84,6.36,4.46,4.85,–,–,–,–,COC(=O)[C@@H](Cc1c[nH]c2ccccc12)NC(=O)CC/C(C)=C/Cc1c(O)c2c(c(C)c1OC)COC2=O
< 4.00,< 4.00,6.59,6.73,< 4.00,< 4.00,–,–,–,–,COc1c(C)c2c(c(O)c1C/C=C(\C)CCC(=O)N[C@@H](Cc1ccccc1)C(=O)NC[C@H]1O[C@@H](n3cnc4c(N)ncnc43)[C@H](O)[C@@H]1O)C(=O)OC2
< 4.00,< 4.00,6.79,6.73,< 4.00,< 4.00,–,–,–,–,COc1c(C)c2c(c(O)c1C/C=C(\C)CCC(=O)N[C@@H](Cc1c[nH]c3ccccc13)C(=O)NC[C@H]1O[C@@H](n3cnc4c(N)ncnc43)[C@H](O)[C@@H]1O)C(=O)OC2
< 4.00,< 4.00,6.58,7.08,< 4.00,4.31,–,–,–,–,COc1c(C)c2c(c(O)c1C/C=C(\C)CCC(=O)NC[C@H]1O[C@@H](n3cnc4c(N)ncnc43)[C@H](O)[C@@H]1O)C(=O)OC2
